Values quoted from earlier work as cited in article PMC9181795, “Ibuprofen Favors Binding of Amyloid-β Peptide to Its Depot, Serum Albumin” (International Journal of Molecular Sciences, 2022).
Like-named read-outs stand apart in the source and are kept apart here.

Assays:
[1] = system: mouse models of AD; set-up: method as in 6 sources, ref [28]–[35] = [28]; PMID 15817521; doi:10.1093/brain/awh452; 28. Heneka M.T. Sastre M. Dumitrescu-Ozimek L. Hanke A. Dewachter I. Kuiperi C. O’Banion K. Klockgether T. Van Leuven F. Landreth G.E. Acute treatment with the PPARgamma agonist pioglitazone and ibupr || [29]; PMID 18374906; doi:10.1016/j.brainres.2008.01.095; 29. McKee A.C. Carreras I. Hossain L. Ryu H. Klein W.L. Oddo S. LaFerla F.M. Jenkins B.G. Kowall N.W. Dedeoglu A. Ibuprofen reduces Abeta, hyperphosphorylated tau and memory deficits in Alzheimer mice || [30]; PMID 19679126; doi:10.1016/j.expneurol.2009.07.032; 30. Choi J.K. Jenkins B.G. Carreras I. Kaymakcalan S. Cormier K. Kowall N.W. Dedeoglu A. Anti-inflammatory treatment in AD mice protects against neuronal pathology Exp. Neurol. 2010 223 377 384 10.101 || [31]; PMID 27190010; doi:10.1093/brain/aww117; 31. Woodling N.S. Colas D. Wang Q. Minhas P. Panchal M. Liang X. Mhatre S.D. Brown H. Ko N. Zagol-Ikapitte I. Cyclooxygenase inhibition targets neurons to prevent early behavioural decline in Alzheime || [32]; PMID 12930788; doi:10.1523/JNEUROSCI.23-20-07504.2003; 32. Yan Q. Zhang J. Liu H. Babu-Khan S. Vassar R. Biere A.L. Citron M. Landreth G. Anti-inflammatory drug therapy alters beta-amyloid processing and deposition in an animal model of Alzheimer’s diseas ||| ref [28],[29],[30],[32],[33],[34],[35] = [28]; PMID 15817521; doi:10.1093/brain/awh452; 28. Heneka M.T. Sastre M. Dumitrescu-Ozimek L. Hanke A. Dewachter I. Kuiperi C. O’Banion K. Klockgether T. Van Leuven F. Landreth G.E. Acute treatment with the PPARgamma agonist pioglitazone and ibupr || [29]; PMID 18374906; doi:10.1016/j.brainres.2008.01.095; 29. McKee A.C. Carreras I. Hossain L. Ryu H. Klein W.L. Oddo S. LaFerla F.M. Jenkins B.G. Kowall N.W. Dedeoglu A. Ibuprofen reduces Abeta, hyperphosphorylated tau and memory deficits in Alzheimer mice || [30]; PMID 19679126; doi:10.1016/j.expneurol.2009.07.032; 30. Choi J.K. Jenkins B.G. Carreras I. Kaymakcalan S. Cormier K. Kowall N.W. Dedeoglu A. Anti-inflammatory treatment in AD mice protects against neuronal pathology Exp. Neurol. 2010 223 377 384 10.101 || [32]; PMID 12930788; doi:10.1523/JNEUROSCI.23-20-07504.2003; 32. Yan Q. Zhang J. Liu H. Babu-Khan S. Vassar R. Biere A.L. Citron M. Landreth G. Anti-inflammatory drug therapy alters beta-amyloid processing and deposition in an animal model of Alzheimer’s diseas || [33]; PMID 10908610; doi:10.1523/JNEUROSCI.20-15-05709.2000; 33. Lim G.P. Yang F. Chu T. Chen P. Beech W. Teter B. Tran T. Ubeda O. Ashe K.H. Frautschy S.A. Ibuprofen suppresses plaque pathology and inflammation in a mouse model for Alzheimer’s disease J. Neuro ||| ref [28] = [28]; PMID 15817521; doi:10.1093/brain/awh452; 28. Heneka M.T. Sastre M. Dumitrescu-Ozimek L. Hanke A. Dewachter I. Kuiperi C. O’Banion K. Klockgether T. Van Leuven F. Landreth G.E. Acute treatment with the PPARgamma agonist pioglitazone and ibupr ||| ref [32] = [32]; PMID 12930788; doi:10.1523/JNEUROSCI.23-20-07504.2003; 32. Yan Q. Zhang J. Liu H. Babu-Khan S. Vassar R. Biere A.L. Citron M. Landreth G. Anti-inflammatory drug therapy alters beta-amyloid processing and deposition in an animal model of Alzheimer’s diseas ||| ref [33],[34] = [33]; PMID 10908610; doi:10.1523/JNEUROSCI.20-15-05709.2000; 33. Lim G.P. Yang F. Chu T. Chen P. Beech W. Teter B. Tran T. Ubeda O. Ashe K.H. Frautschy S.A. Ibuprofen suppresses plaque pathology and inflammation in a mouse model for Alzheimer’s disease J. Neuro || [34]; PMID 15688088; doi:10.1038/sj.npp.1300668; 34. Morihara T. Teter B. Yang F. Lim G.P. Boudinot S. Boudinot F.D. Frautschy S.A. Cole G.M. Ibuprofen suppresses interleukin-1beta induction of pro-amyloidogenic alpha1-antichymotrypsin to ameliorate ||| ...; settings: cited from earlier work
[2] = set-up: method as in doi:10.3109/03639048309039887, PMID 10714613; settings: pH values above 7; ref [22],[23]; cited from earlier work

CC(C)Cc1ccc(C(C)C(=O)O)cc1 (stereo not shown) [IBU, 2-[4-(2-methylpropyl)phenyl]propanoic acid]
neuroprotective effects of IBU intake ([1]; mouse models of AD, ref [28]–[35]): suppression of the inflammatory processes, reduction in the Aβ sprand tau protein depositions, and lowering of the cognitive and memory deficits
mechanism ascribed to reduced Aβ deposition ([1]; ref [28]): downregulation of β-secretase 1 and COX-2
mechanism ascribed to reduced Aβ deposition ([1]; ref [32]): reduction in Aβ42 production
mechanism ascribed to reduced Aβ deposition ([1]; ref [33],[34]): inhibition of interleukin-1β and its downstream target α1-antichymotrypsin
mechanism ascribed to reduced Aβ deposition ([1]; ref [35]): attenuation of NADPH oxidase activation and reactive oxygen species production
brain deposition of Aβ upon treatment with IBU ([1]; several mouse AD models, ref [28],[29],[30],[32],[33],[34],[35]): reduction in brain deposition of Aβ
water solubility [2]: 100 to 1000 mM
